ChEMBL document CHEMBL6092199, “Naphthalen-1-ylethanamine-containing small molecule inhibitors of the papain-like protease of SARS-CoV-2” (Eur J Med Chem, 2024)
The source made the active and inactive calls. No cut-off for these calls is given here.

Experiments:
SARS-CoV-2 [1] = experiment: Antiviral activity against SARS-CoV-2 JPN/TY/WK-521 infected in Vero E6 cells assessed as reduction in viral RNA level incubated for 3 days by RT-qPCR analysis; type: functional, organism-based; settings: Severe acute respiratory syndrome coronavirus 2, JPN/TY/WK-521, Vero C1008, 72 h
[2] = Cytotoxicity against african green monkey Vero E6 cells incubated for 3 days by CCK8 assay; type: toxicity, cell-based, Vero C1008; settings: chlorocebus sabaeus, time 3 day
[3] = target: T1, Replicase polyprotein 1ab (Severe acute respiratory syndrome coronavirus 2, UniProt P0DTD1); experiment: Inhibition of SARS-CoV-2 PL protease using (Z)-Arg-Leu-Arg-Gly-Gly-4-methyl-coumaryl-7-amide as substrate measured every 150 sec for 1 hr by multimode reader assay
[4] = Inhibition of SARS-CoV-1 PL protease using (Z)-Arg-Leu-Arg-Gly-Gly-4-methyl-coumaryl-7-amide as substrate measured every 150 sec for 1 hr by multimode reader assay; design: species or system Severe acute respiratory syndrome-related coronavirus
[5] = target: T1, Replicase polyprotein 1ab; experiment: Inhibition of SARS-CoV-2 PL protease using (Z)-Arg-Leu-Arg-Gly-Gly-4-methyl-coumaryl-7-amide as substrate and varying concentration of […] by Lineweaver-burk plot analysis
[6] = Inhibition of SARS-CoV-1 PL protease using (Z)-Arg-Leu-Arg-Gly-Gly-4-methyl-coumaryl-7-amide as substrate and varying concentration of […] by Lineweaver-burk plot analysis; design: species or system Severe acute respiratory syndrome-related coronavirus
[7] = target: T1, Replicase polyprotein 1ab; experiment: Inhibition of SARS-CoV-2 PL protease using varying concentration of (Z)-Arg-Leu-Arg-Gly-Gly-4-methyl-coumaryl-7-amide as substrate by Dixon plot analysis
[8] = Inhibition of SARS-CoV-1 PL protease using varying concentration of (Z)-Arg-Leu-Arg-Gly-Gly-4-methyl-coumaryl-7-amide as substrate by Dixon plot analysis; design: species or system Severe acute respiratory syndrome-related coronavirus
SARS-CoV-2 [9] = experiment: Antiviral activity against SARS-CoV-2 JPN/TY/WK-521 infected in Vero E6 cells assessed as reduction in cytopathic effect at 1 to 100 uM pretreated with virus for 1 hr followed by viral washout and compound exposure for 3 days by immunocytochemistry analysis; type: functional, organism-based; settings: Severe acute respiratory syndrome coronavirus 2, dose 1-100 µM, time 3.0 day

Row | Structure (SMILES) | EC50 (SARS-CoV-2 [1]) | CC50 at 72 h [2] | other results
1 | Cc1ccc(CNC(=O)c2ccccc2C(F)(F)F)cc1C(=O)N[C@H](C)c1cccc2ccccc12 | 27.4 µM | > 100 µM | –
2 | Cc1ccc(C(=O)NCc2ccc(C)c(C(=O)N[C@H](C)c3cccc4ccccc34)c2)cc1 | > 100 µM | > 100 µM | –
3 | Cc1ccc(CNC(=O)C(N)=O)cc1C(=O)N[C@H](C)c1cccc2ccccc12 | > 100 µM | > 100 µM | –
4 | Cc1ccc(CNC(=O)OC(C)(C)C)cc1C(=O)N[C@H](C)c1cccc2cc3ccccc3cc12 | > 100 µM | > 100 µM | –
5 | Cc1ccc(CNC(=O)c2ccccc2[N+](=O)[O-])cc1C(=O)N[C@H](C)c1cccc2ccccc12 | 18.3 µM | 55.6 µM | –
6 | Cc1ccc(CNC(=O)c2ccc(F)cc2F)cc1C(=O)N[C@H](C)c1cccc2ccccc12 | > 100 µM | > 100 µM | –
7 | Cc1ccc(CNC(=O)c2cccc(F)c2)cc1C(=O)N[C@H](C)c1cccc2ccccc12 | 57.4 µM | > 100 µM | –
8 | Cc1ccc(CNC(=O)c2ccc(F)cc2C(F)(F)F)cc1C(=O)N[C@H](C)c1cccc2ccccc12 | > 100 µM | > 100 µM | –
9 | Cc1ccc(CNC(=O)c2c(F)c(F)cc(F)c2F)cc1C(=O)N[C@H](C)c1cccc2ccccc12 | 44.8 µM | > 100 µM | –
10 | Cc1ccc(CNC(=O)CC(F)(F)F)cc1C(=O)N[C@H](C)c1cccc2ccccc12 | 40.7 µM | > 100 µM | –
11 | Cc1ccc(CNC(=O)c2ccc(C(F)(F)F)cc2)cc1C(=O)N[C@H](C)c1cccc2ccccc12 | 18.7 µM | > 100 µM | –
12 | Cc1ccc(CNC(=O)c2ccc(C(C)(C)C)cc2)cc1C(=O)N[C@H](C)c1cccc2ccccc12 | 7.3 µM | 58.2 µM | IC50 [3]: 3.1 µM; IC50 [4]: 0.47 µM; Ki [5]: 4.1 µM; Ki [6]: 0.32 µM; Ki [7]: 4.6 µM; Ki [8]: 0.54 µM
13 | Cc1ccc(CNC(=O)c2ccc(C(F)(F)F)cc2F)cc1C(=O)N[C@H](C)c1cccc2ccccc12 | > 100 µM | > 100 µM | –
14 | Cc1ccc(N)cc1C(=O)N[C@H](C)c1cccc2ccccc12 | 24.7 µM | > 100 µM | IC50 [4]: 0.05 µM; Ki [6]: 0.12 µM; Ki [8]: 0.29 µM
15 | Cc1ccc(CNC(=O)C(=O)O)cc1C(=O)N[C@H](C)c1cccc2ccccc12 | 2.7 µM | > 100 µM | IC50 [3]: 5.9 µM; IC50 [4]: 0.46 µM; Ki [5]: 4.4 µM; Ki [6]: 0.12 µM; Ki [7]: 4.6 µM; Ki [8]: 0.18 µM; Activity (SARS-CoV-2 [9]): Active
16 | Cc1ccc(CNC(=O)c2ccc(C(F)(F)F)c(F)c2)cc1C(=O)N[C@H](C)c1cccc2ccccc12 | > 100 µM | > 100 µM | –
17 | Cc1ccc(CNC(=O)C(F)(F)F)cc1C(=O)N[C@H](C)c1cccc2ccccc12 | 30.3 µM | > 100 µM | –
18 | Cc1ccc(CNC(=O)c2cccc(C(F)(F)F)c2F)cc1C(=O)N[C@H](C)c1cccc2ccccc12 | 29.1 µM | > 100 µM | –
19 | Cc1ccc(CNC(=O)c2cccc(C(F)(F)F)c2)cc1C(=O)N[C@H](C)c1cccc2ccccc12 | 15.7 µM | > 100 µM | –
20 | CCOC(=O)C(=O)NCc1ccc(C)c(C(=O)N[C@H](C)c2cccc3ccccc23)c1 | > 100 µM | > 100 µM | –

Row | Structure (SMILES) | EC50 (SARS-CoV-2 [1]) | CC50 at 72 h [2] | other results
21 | Cc1ccc(CNC(=O)c2c(F)cc(F)cc2F)cc1C(=O)N[C@H](C)c1cccc2ccccc12 | > 100 µM | > 100 µM | –
22 | Cc1ccc(CNC(=O)c2ccc(F)c(F)c2)cc1C(=O)N[C@H](C)c1cccc2cc3ccccc3cc12 | > 100 µM | > 100 µM | –
23 | Cc1ccc(CNC(=O)c2ccc([N+](=O)[O-])cc2)cc1C(=O)N[C@H](C)c1cccc2ccccc12 | 40.3 µM | > 100 µM | –
24 | Cc1ccc(CNC(=O)c2ccccc2F)cc1C(=O)N[C@H](C)c1cccc2ccccc12 | 13.2 µM | > 100 µM | –
25 | CNCc1ccc(C)c(C(=O)N[C@H](C)c2cccc3ccccc23)c1 | 25.2 µM | > 100 µM | –
26 | Cc1ccc(CNC(=O)c2ccc(F)cc2)cc1C(=O)N[C@H](C)c1cccc2ccccc12 | 25.7 µM | > 100 µM | –
27 | Cc1ccc(CNC(=O)c2ccc([N+](=O)[O-])c(F)c2)cc1C(=O)N[C@H](C)c1cccc2ccccc12 | 76.9 µM | > 100 µM | –
28 | Cc1ccc(CNC(=O)c2ccccc2)cc1C(=O)N[C@H](C)c1cccc2ccccc12 | 35.4 µM | > 100 µM | –
29 | CC(=O)NCc1ccc(C)c(C(=O)N[C@H](C)c2cccc3ccccc23)c1 | > 100 µM | > 100 µM | –
30 | Cc1ccc(CNC(=O)c2cccc(C(F)(F)F)c2C)cc1C(=O)N[C@H](C)c1cccc2ccccc12 | > 100 µM | > 100 µM | –
31 | Cc1ccccc1C(=O)NCc1ccc(C)c(C(=O)N[C@H](C)c2cccc3ccccc23)c1 | 15.1 µM | > 100 µM | –
32 | Cc1ccc(CNC(=O)c2cccc(F)c2F)cc1C(=O)N[C@H](C)c1cccc2ccccc12 | 52.3 µM | > 100 µM | –
33 | Cc1cccc(C(=O)NCc2ccc(C)c(C(=O)N[C@H](C)c3cccc4ccccc34)c2)c1 | 44 µM | > 100 µM | –
34 | Cc1ccc(CNC(=O)c2ccc(F)c(F)c2)cc1C(=O)N[C@H](C)c1cccc2ccccc12 | 3.8 µM | > 100 µM | IC50 [4]: 0.3 µM; Ki [5]: 5.6 µM; Ki [6]: 0.16 µM; Ki [7]: 5.3 µM; Ki [8]: 0.28 µM; Activity (SARS-CoV-2 [9]): Active
35 | Cc1ccc(CNC(=O)C(C(F)(F)F)C(F)(F)F)cc1C(=O)N[C@H](C)c1cccc2ccccc12 | > 100 µM | > 100 µM | –
36 | Cc1ccc(CN)cc1C(=O)N[C@H](C)c1cccc2ccccc12 | 15.5 µM | > 100 µM | –
37 | Cc1ccc(CNC(=O)c2cc(F)c(F)cc2F)cc1C(=O)N[C@H](C)c1cccc2ccccc12 | > 100 µM | > 100 µM | –
38 | Cc1ccc(CN)cc1C(=O)N[C@H](C)c1cccc2cc3ccccc3cc12 | 27.3 µM | 40.5 µM | –
39 | Cc1ccc(CNC(=O)c2cc(C(F)(F)F)cc(C(F)(F)F)c2)cc1C(=O)N[C@H](C)c1cccc2ccccc12 | 72.8 µM | > 100 µM | –
40 | Cc1ccc(CNC(=O)C(=O)O)cc1C(=O)N[C@H](C)c1cccc2cc3ccccc3cc12 | > 100 µM | > 100 µM | –
